Consider 15 compounds from PubChem BioAssay (NCI).

What all share (assay): NCI-60 cell line screen, 48 h
Test [1] has as its system A498 renal.
For test [2], the system named is NCI-H226 lung.
The subject of test [3] is NCI-H460 lung.
The test system of test [4] is SK-MEL-28 melanoma.
The test system of test [5] is SK-MEL-5 melanoma.
Test [6] relates to SK-OV-3 ovarian.
The test system of test [7] is SNB-75 CNS.
Test [8] relates to TK-10 renal.
Test [9] has as its system UO-31 renal.

Molecules are shown by their SMILES.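 Following 48 hours of exposure in 96-well plates, responses at five concentrations were used to interpolate endpoints linearly. TGI denotes the concentration required for complete inhibition of growth.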 A value given as a limit tells only on which side of the number the result lay.

Consider `Cc1c(C(=O)CSc2nc3ccccc3[nH]2)c(=O)n(-c2ccccc2)n1C`, for which the TGI in test [1], in test [2], in test [3], in [4], in test [5] and in test [6] was more than 100 µM in each case. The TGI in test [7], in test [8] and in test [9] was more than 100 µM each time.
Consider `CNC(=O)CN(CC(N)=O)C(N)=O`, for which the TGI in test [1], in [2], in test [3], in test [4], in test [5] and in test [6] was more than 100 µM in each case. For the same compound, the TGI in test [7], in test [8] and in test [9] was more than 100 µM throughout.
`CC1CC[C@]2(C(=O)O)CCC3(C)C(=CCC4[C@@]5(C)CC[C@H](OS(=O)(=O)c6ccccc6)C(C)(C)C5CC[C@]43C)[C@@H]2[C@H]1C` (stereo partly drawn): the TGI in test [1], in test [2], in test [3], in test [4], in test [5] and in test [6] was more than 100 µM each time. For the same compound, the TGI in test [7], in test [8] and in test [9] was more than 100 µM in each case.
For the compound `COc1ccc(OC)c2c3c(ccc12)C(c1ccccc1)OC3=O` (stereo not drawn), the TGI in test [1], in test [2], in [3], in [4], in test [5] and in test [6] was more than 100 µM in each case. For the same compound, the TGI in [7], in test [8] and in test [9] was more than 100 µM in each case.
In the case of `COC(OC)c1cc2c(cc1C(=O)[C@@]13CCC[C@@H]1NC(=O)O3)OCO2`, the TGI in [1], in [2], in test [3], in test [4], in test [5] and in [6] was more than 100 µM each time. Also, the TGI in [7], in [8] and in [9] was more than 100 µM each time.
Take `COc1nc(NC2OC(COC(C)=O)C(OC(C)=O)C(OC(C)=O)C2OC(C)=O)c(-c2csc(N)n2)c(=O)n1C` (stereo not drawn): the TGI in [1], in test [2], in test [3], in [4], in [5] and in [6] was more than 100 µM each time. Further, the TGI was 51.8 µM in [7], more than 100 µM in [8] and more than 100 µM in test [9].
For `CCOc1ccc(C(CN2CCOCC2)C(C)=O)cc1OC` (stereo not drawn), the TGI in [1] was 59 µM; in test [2], 32.4 µM; in test [3], 32.5 µM; in test [4], 35.8 µM; in [5], 35.2 µM; in test [7], 32.6 µM. Moreover, the values for the TGI in test [8] and in test [9] were 31 µM and 27.8 µM, respectively.
Take `Cc1nc(-n2nc(-c3ccccc3)cc2-c2ccccc2)sc1C(/C=C/c1ccc([N+](=O)[O-])cc1)=N/NC(=O)c1ccncc1`: the TGI in test [1] is more than 100 µM; in test [2] it was 56.9 µM; in [3] it was more than 100 µM; in [4], 99.2 µM; in [5], 63.7 µM; in test [6], more than 100 µM. Besides, the TGI was more than 100 µM in test [7], 82.9 µM in test [8] and 90.4 µM in test [9].
`O=C1C=CC2(C=C1)C[C@H](NC(=O)C(F)(F)F)C(=O)O2`: the TGI in [1] is more than 100 µM; in [2] it was more than 100 µM; in [3], more than 100 µM; in [4], 38.3 µM; in [5], more than 100 µM; in [6], more than 100 µM. Besides, the TGI in test [7], in test [8] and in test [9] was more than 100 µM throughout.
For `C[N+](C)(C)CC1CCCC(C[N+](C)(C)C)C1O` (stereo not drawn), the TGI in test [1], in test [2], in test [3], in test [4], in [5] and in test [6] was more than 100 µM throughout. Moreover, the TGI in test [7], in [8] and in test [9] was more than 100 µM throughout.
Consider `CC(=O)C1C(=O)N(C(C)C)C[C@@H]2CCC(=O)C[C@H]12` (stereo partly drawn), for which the TGI in test [1], in test [3], in test [4], in test [5], in test [6] and in test [7] was more than 100 µM throughout. Further, the TGI in test [8] and in test [9] was more than 100 µM each time.
Take `Cc1cc(Cl)cc2c1NC(=O)C2=O` (tested in a mixture with another compound): the TGI in test [1], in test [2], in test [3], in [4], in test [5] and in test [6] was more than 100 µM each time. Also, the TGI in [7], in test [8] and in test [9] was more than 100 µM in each case.
Take `CCC1CNC(=O)CC1CC(=O)OC` (stereo not drawn): the TGI in test [2], in [4], in test [5], in [6], in test [7] and in [8] was more than 100 µM each time. Also, the TGI in [9] was more than 100 µM.
`Cc1ccc(NC(=O)CC(=O)N2N=C(N(CCC#N)c3cccc(C)c3)CC2c2ccccc2)cc1` (stereo not drawn): the TGI in [2], in test [3], in test [4], in test [5], in test [6] and in test [7] was more than 100 µM throughout. In test [9], the TGI was more than 100 µM.
In the case of `COc1cc2c(c(OC)c1OC)-c1ccc(SC)c(=O)cc1[C@@H](NC(=O)c1ccc(Cl)cc1)CC2`, the TGI is less than 0.01 µM in [1]; less than 0.01 µM in [2]; 10.5 µM in test [3]; more than 100 µM in test [4]; less than 0.01 µM in [5]; more than 100 µM in test [7]. The figures for the TGI in [8] and in test [9] were more than 100 µM and 62.6 µM, respectively.
